Assay results from patent publication US6461997B1, “Triazole sulfones having herbicidal activity” (Monsanto Technology LLC, priority 1999, dated 2002).

Columns and labels:
AMARE (redroot pigweed) = experiment: Pre-emergence herbicidal activity, warm season; assay type: in vivo, Amaranthus retroflexus; conditions: GR80 = lowest tested rate (300, 100, 30, 10 g/ha) with 80% or greater inhibition; approx. 14 days after treating; 30/21° C.
Description: (§1) Tables 5 to 8 summarize results of tests conducted as described below to determine the pre-emergence herbicidal activity, in the form of a GR80 value, of illustrative compounds of this invention. […] Compounds of the invention were typically applied at rates of 300, 100, 30, and 10 g/ha. Where herbicidal activity was evident but 80% inhibition was not achieved at the highest rate tested, an asterisk (*) is shown in the following tables.
(§2) The pre-emergence tests were conducted by the following procedure. Topsoil was sieved to pass through a 1.27 cm screen. Fertilizer was added to the topsoil and the mixture was then sterilized by heating. The topsoil mixture was placed in a pot and compacted to a depth of 1.0 to 1.25 cm from the top of the pot. Seeds of each of several monocotyledonous and dicotyledonous annual plant species were placed on top of the soil. Additional soil was subsequently placed over the seeds to level-fill the pot. A known amount of each test compound dissolved or suspended in an appropriate organic solvent was diluted with a 50:50 mix of acetone and water and applied to the surface of the soil. After treatment the plants were placed in a greenhouse where they received 0.64 cm of overhead irrigation. All subsequent watering consisted of a light overhead mist and/or subirrigation as needed for germination and growth. Tables 5 and 6 below relate to warm season plant species which were placed after pre-emergence treatment in a greenhouse with a 30/21° C. day/night temperature regime. Tables 7 and 8 below relates to cool season plant species placed after pre-emergence treatment in a greenhouse or growth chamber with an 18/13° C. day/night temperature regime.
(§3) Approximately 14 days after planting and treating, the plants were observed and herbicidal efficacy recorded as percent inhibition by comparison with untreated plants.
(§4) The plant species usually regarded as weeds which were utilized in the tests are identified in the tables below according to the following legend, in which “d” indicates a dicotyledonous species and “m” a monocotyledonous species. All monocotyledonous species included in the tests herein are grasses.

[1] = tested on: PANMI (wild proso millet); experiment: Pre-emergence herbicidal activity, warm season; assay type: in vivo, Panicum miliaceum; conditions: GR80 = lowest tested rate (300, 100, 30, 10 g/ha) with 80% or greater inhibition; approx. 14 days after treating; 30/21° C.
Outline: (§5)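 Seeds sown in sterilised fertilised topsoil received surface-applied compound in 50:50 acetone/water, typically at 300, 100, 30 and 10 g/ha, then greenhouse-grown at 30/21° C (warm-season species) or 18/13° C (cool-season species). Percent inhibition versus untreated plants was scored at about 14 days, giving GR80; an asterisk marks activity short of 80% at the top rate.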

[2] = tested on: BRAPP (broadleaf signalgrass); experiment: Pre-emergence herbicidal activity, warm season; assay type: in vivo, Brachiaria platyphylla; conditions: GR80 = lowest tested rate (300, 100, 30, 10 g/ha) with 80% or greater inhibition; approx. 14 days after treating; 30/21° C.
Description: as §1, §2, §3, §4

DIGSA (large crabgrass) = experiment: Pre-emergence herbicidal activity, warm season; assay type: in vivo, Digitaria sanguinalis; conditions: GR80 = lowest tested rate (300, 100, 30, 10 g/ha) with 80% or greater inhibition; approx. 14 days after treating; 30/21° C.
Outline: as §5

[3] = tested on: GALAP (catchweed bedstraw); experiment: Pre-emergence herbicidal activity, cool season; assay type: in vivo, Galium aparine; conditions: lowest tested rate with 80% or greater inhibition; rates 300, 100, 30, 10 g/ha; about 14 days
Outline: as §5

POLCO (wild buckwheat) = experiment: Pre-emergence herbicidal activity, cool season; assay type: in vivo, Polygonum convolvulus; conditions: lowest tested rate with 80% or greater inhibition; rates 300, 100, 30, 10 g/ha; about 14 days
Outline: as §5

SINAR (wild mustard) = experiment: Pre-emergence herbicidal activity, cool season; assay type: in vivo, Sinapis arvensis; conditions: lowest tested rate with 80% or greater inhibition; rates 300, 100, 30, 10 g/ha; about 14 days
Outline: as §5

[4] = tested on: VERPE (creeping speedwell); experiment: Pre-emergence herbicidal activity, cool season; assay type: in vivo, Veronica persicaria; conditions: lowest tested rate with 80% or greater inhibition; rates 300, 100, 30, 10 g/ha; about 14 days
Outline: as §5

SASKR (russian thistle) = experiment: Pre-emergence herbicidal activity, cool season; assay type: in vivo, Salsola kali; conditions: lowest tested rate with 80% or greater inhibition; rates 300, 100, 30, 10 g/ha; about 14 days
Outline: as §5

STEME (common chickweed) = experiment: Pre-emergence herbicidal activity, cool season; assay type: in vivo, Stellaria media; conditions: lowest tested rate with 80% or greater inhibition; rates 300, 100, 30, 10 g/ha; about 14 days
Outline: as §5

[5] = tested on: LAMPU (purple deadnettle); experiment: Pre-emergence herbicidal activity, cool season; assay type: in vivo, Lamium purpureum; conditions: lowest tested rate with 80% or greater inhibition; rates 300, 100, 30, 10 g/ha; about 14 days
Outline: as §5

ALOMY (blackgrass) = experiment: Pre-emergence herbicidal activity, cool season; assay type: in vivo, Alopecurus myosuroides; conditions: GR80 = lowest tested rate (300, 100, 30, 10 g/ha) with 80% or greater inhibition; approx. 14 days after treating; 18/13° C.
Outline: as §5

SETVI (green foxtail) = experiment: Pre-emergence herbicidal activity, cool season; assay type: in vivo, Setaria viridis; conditions: GR80 = lowest tested rate (300, 100, 30, 10 g/ha) with 80% or greater inhibition; approx. 14 days after treating; 18/13° C.
Outline: as §5

LOLMG (annual ryegrass) = experiment: Pre-emergence herbicidal activity, cool season; assay type: in vivo, Lolium multiflorum; conditions: GR80 = lowest tested rate (300, 100, 30, 10 g/ha) with 80% or greater inhibition; approx. 14 days after treating; 18/13° C.
Description: as §1, §2, §3, §4

[6] = tested on: AGSST (creeping bentgrass); experiment: Pre-emergence herbicidal activity, cool season; assay type: in vivo, Agrostis stolonifera; conditions: GR80 = lowest tested rate (300, 100, 30, 10 g/ha) with 80% or greater inhibition; approx. 14 days after treating; 18/13° C.
Outline: as §5

[7] = tested on: CHEAL (common lambsquarters); experiment: Pre-emergence herbicidal activity, warm season; assay type: in vivo, Chenopodium album; conditions: GR80 = lowest tested rate (300, 100, 30, 10 g/ha) with 80% or greater inhibition; approx. 14 days after treating; 30/21° C.
Outline: as §5

ECHCG (barnyardgrass) = experiment: Pre-emergence herbicidal activity, warm season; assay type: in vivo, Echinochloa crus-galli; conditions: GR80 = lowest tested rate (300, 100, 30, 10 g/ha) with 80% or greater inhibition; approx. 14 days after treating; 30/21° C.
Outline: (§6)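 Activity is expressed as the rate giving 80% inhibition, with 300, 100, 30 and 10 g/ha typically tested. An asterisk marks activity short of 80% at the top rate. Warm-season grasses were held at 30/21 °C; cool-season blackgrass and wild buckwheat at 18/13 °C; scoring at about 14 days.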

[8] = tested on: SORHA (johnsongrass (seedling)); experiment: Pre-emergence herbicidal activity, warm season; assay type: in vivo, Sorghum halepense; conditions: GR80 = lowest tested rate (300, 100, 30, 10 g/ha) with 80% or greater inhibition; approx. 14 days after treating; 30/21° C.
Outline: as §6

SETFA (giant foxtail) = experiment: Pre-emergence herbicidal activity, warm season; assay type: in vivo, Setaria faberi; conditions: GR80 = lowest tested rate (300, 100, 30, 10 g/ha) with 80% or greater inhibition; approx. 14 days after treating; 30/21° C.
Outline: as §6

ABUTH (velvetleaf) = experiment: Pre-emergence herbicidal activity, warm season; assay type: in vivo, Abutilon theophrasti; conditions: GR80 = lowest tested rate (300, 100, 30, 10 g/ha) with 80% or greater inhibition; approx. 14 days after treating; 30/21° C.
Description: as §1, §2, §3, §4

SOLNI (black nightshade) = experiment: Pre-emergence herbicidal activity, warm season; assay type: in vivo, Solanum nigrum; conditions: GR80 = lowest tested rate (300, 100, 30, 10 g/ha) with 80% or greater inhibition; approx. 14 days after treating; 30/21° C.
Outline: as §5

POROL (common purslane) = experiment: Pre-emergence herbicidal activity, warm season; assay type: in vivo, Portulaca oleracea; conditions: GR80 = lowest tested rate (300, 100, 30, 10 g/ha) with 80% or greater inhibition; approx. 14 days after treating; 30/21° C.
Description: as §1, §2, §3, §4

SORVU (shattercane) = experiment: Pre-emergence herbicidal activity, warm season; assay type: in vivo, Sorghum vulgare; conditions: GR80 = lowest tested rate (300, 100, 30, 10 g/ha) with 80% or greater inhibition; approx. 14 days after treating; 30/21° C.
Description: as §1, §2, §3, §4

Structure (SMILES)	Pre-emergence activity (GR80) PANMI [1] [g/ha]	Pre-emergence activity (GR80) DIGSA (DIGSA (large crabgrass)) [g/ha]	Pre-emergence activity GR80, GALAP [3]	Pre-emergence activity GR80, POLCO (POLCO (wild buckwheat))	Pre-emergence activity GR80, SINAR (SINAR (wild mustard))	Pre-emergence activity GR80, VERPE [4]	Pre-emergence activity GR80, SASKR (SASKR (russian thistle))	Pre-emergence activity GR80, STEME (STEME (common chickweed))	Pre-emergence activity GR80, LAMPU [5]	Pre-emergence activity (GR80) ALOMY (ALOMY (blackgrass)) [g/ha]	Pre-emergence activity (GR80) SETVI (SETVI (green foxtail)) [g/ha]	Pre-emergence activity (GR80) LOLMG (LOLMG (annual ryegrass)) [g/ha]	Pre-emergence activity (GR80) AGSST [6] [g/ha]	Pre-emergence activity (GR80) ABUTH (ABUTH (velvetleaf)) [g/ha]	also measured
CCCN(CC)C(=O)n1cnc(S(=O)(=O)C(F)F)n1 [Example 28]	300	300	30 g/ha	[empty]	10 g/ha	10 g/ha	30 g/ha	10 g/ha	30 g/ha	30	30	300	30		Pre-emergence activity (GR80) AMARE (AMARE (redroot pigweed)): 300 g/ha; Pre-emergence activity (GR80) BRAPP [2]: 300 g/ha
CCCN(CC)C(=O)n1cnc(S(=O)(=O)C(F)(F)Br)n1 [Example 39]	300		100 g/ha	100 g/ha	30 g/ha	10 g/ha	100 g/ha	30 g/ha	30 g/ha	300	100	300	30		Pre-emergence activity (GR80) AMARE (AMARE (redroot pigweed)): 300 g/ha; Pre-emergence activity (GR80) CHEAL [7]: 300 g/ha; Pre-emergence activity (GR80) ECHCG (ECHCG (barnyardgrass)): 300 g/ha; Pre-emergence activity (GR80) SORHA [8]: 100 g/ha; Pre-emergence activity (GR80) SETFA (SETFA (giant foxtail)): 100 g/ha
CN(Cc1ccccc1)C(=O)n1cnc(S(=O)(=O)C(F)(F)Br)n1 [Example 44]	300		[empty]	[empty]	[empty]	100 g/ha	[empty]	[empty]	[empty]					300	Pre-emergence activity (GR80) SOLNI (SOLNI (black nightshade)): 30 g/ha
CCSC(F)(F)S(=O)(=O)c1ncn(C(=O)N(C)C2CCCCC2)n1 [Example 55]	100	300	[empty]	300 g/ha	[empty]	[empty]	[empty]	[empty]	[empty]		300		300	300	Pre-emergence activity (GR80) SOLNI (SOLNI (black nightshade)): 300 g/ha; Pre-emergence activity (GR80) CHEAL [7]: 300 g/ha; Pre-emergence activity (GR80) POROL (POROL (common purslane)): 300 g/ha; Pre-emergence activity (GR80) ECHCG (ECHCG (barnyardgrass)): 300 g/ha; Pre-emergence activity (GR80) SORHA [8]: 300 g/ha; Pre-emergence activity (GR80) SETFA (SETFA (giant foxtail)): 300 g/ha; Pre-emergence activity (GR80) SORVU (SORVU (shattercane)): 300 g/ha; Pre-emergence activity (GR80) BRAPP [2]: 300 g/ha
CCSC(F)(F)S(=O)(=O)c1ncn(C(=O)N(C)OC)n1 [Example 57]		300	300 g/ha	100 g/ha	30 g/ha	10 g/ha	30 g/ha	30 g/ha	[empty]	300	300	30			
C#CCN(C)C(=O)n1cnc(S(=O)(=O)C(F)(F)C(F)F)n1 [Example 66]			[empty]	300 g/ha	[empty]	100 g/ha	300 g/ha	[empty]	[empty]					300	
CON(C)C(=O)n1cnc(S(=O)(=O)C(F)(F)Cl)n1 [Example 93]			[empty]	[empty]	[empty]	300 g/ha	[empty]	[empty]	[empty]					100	
